According to patent US20060099568A1, “Signals and molecular species involved in senescence” (priority 2002, published 2006):

Key:
[1] = system: human diploid fibroblasts; assay: LPA-stimulated cell proliferation (viable cell count or MTT assay); assay type: cell-based; conditions: 4 days treatment
Source text: The optical density at 570 nm was plotted (A). The actual viable cell numbers were plotted (B).
In order to study the role of LPA-induced cAMP signaling, the inventors further compared LPA-stimulated cell proliferation between presenescent and near-senescent cells. After 4 days treatment with vehicle or LPA, the level of viable cells were counted or measured by MTT assay.

PKA = assay: measurement of protein kinase A activity (Kemptide, [γ-32P]ATP); assay type: cell-based, human; conditions: 30 μg/ml LPA
Protocol: FIG. 10 represents LPA-dependent PKA activity and CREB phosphorylation in presenescent and near-senescent fibroblasts. Subconfluent presenescent (passage 8, Pa 8) and near-senescent (passage 24, Pa 24) fibroblasts were serum-starved for 2 days and treated with 30 μg/ml LPA for the indicated times. The PKA activity (A) was determined in cell homogenates with kemptide and [γ^32P]ATP as substrates. The radioactivity incorporated into kemptide was measured by a beta-counter and the enzyme activity was calculated as pmol/min/mg protein. The data represents an average of triplicate experiments. The level of phospho-CREB (B) was measured by Western blot analysis using an anti-phospho-CREB antibody.
LPA-treated cells were harvested and homogenized in ice-cold homogenization buffer containing 0.25 M sucrose, 10 mM Tris-HCl, pH 7.5, 10 MM MgCl2, 2 mM EGTA, and protease inhibitors. Homogenates were centrifuged at 20,000×g at 4° C. for 20 min. Protein kinase A assays were performed as described previously (Yang et al., 1999). […] The paper was washed once with 0.75% phosphoric acid and the radioactivity incorporated into Kemptide was quantified on a scintillation counter (Model Tri-Carb 1600 CA, Packard Instrument Company). […] PKI-inhibitable kinase activity was calculated and the data were reported as percent of total PKA activity. […]

ERK1 and ERK2 = assay: ERK activation, phospho-ERK Western blot; assay type: cell-based, human
Protocol: Serum-starved presenescent (passage 10, Pa 10) and near-senescent (passage 29, Pa 29) fibroblasts were treated with 30 μg/ml LPA for the indicated times. The level of phospho-ERK in the cytosolic fraction from each cell, as an indication of ERK activation, was measured by Western blot analysis employing anti-phospho-ERK antibody.
The expression levels of signaling proteins were examined by Western blot analysis, as described previously (Yeo et al., 2000a). Total cell lysates were prepared in a lysis buffer containing 50 mM Tris-HCl, pH 7.5, containing 150 mM NaCl, 2 mM EDTA, 1 mM EGTA, 1 mM Na3VO4, 10 mM NaF, 1 mM DTT, 1 mM PMSF, 25 μg/ml leupeptin, 25 μg/ml aprotinin, 5 mM benzamidine, and 1% Nonidet P-40. The protein concentrations of the lysates were determined using a BCA protein assay kit, as described by the protocol supplied by the manufacturer. Cell lysates containing equal amounts of protein were resolved by SDS-polyacrylamide gel electrophoresis and transferred onto Immobilon PVDF membranes. […] To examine the level of phospholipase D 1/2, the immunoprecipitated protein obtained using 10 μl of anti-phospholipase D 1 anti-sera (Box45, ESTP4) was analyzed by Western blot against polyclonal anti-phospholipase D 1 antibodies (1:20 dilution of NC STP4 anti-serum).

cellular cAMP = assay: measurement of cyclic AMP accumulation (cAMP binding assay); assay type: cell-based, human
Protocol: FIG. 9 represents LPA-induced alteration of cellular cAMP content in presenescent and near-senescent fibroblasts. Subconfluent presenescent (passage 8, Pa 8) and near-senescent (passage 24, Pa 24) fibroblasts were serum-starved for 2 days and treated with LPA: A, 1-70 μg/ml LPA for 30 min; B, 30 μg/ml LPA for the indicated times. The level of cAMP in the acid extracts was measured by cAMP binding assay. The data represents an average of triplicate experiments.
Subconfluent near-senescent (passage 26, Pa 26) fibroblasts were serum-starved for 2 days and treated with 30 μg/ml LPA for the indicated times in the absence or presence of 10 μM PKC inhibitor bisindolylmaleiamide (bIM). The level of cAMP in the acid extracts was measured by cAMP binding assay. The data represents an average of triplicate experiments.
Cells grown on a 12 well-plate were serum-starved by incubating with SFM for 2 days. After the cells were equilibrated in the fresh SFM medium for 1 hour, they were treated with LPA as described in the figure. The reaction was terminated by removing the medium and by adding 2.5 M perchloric acid. The acid extract was stored at −20° C. until use. The acid extract was neutralized with 4.2 M KOH and the cAMP content was determined by competitive binding with [^3H]cAMP to the cAMP binding protein, RIα of cAMP-dependent protein kinase, as described by Jang and Juhnn (2001). After the extraction, cells were lyzed with 0.1 N NaOH and analyzed for protein content using the Bradford protein assay reagent. The cAMP content was normalized to the amount of acid-insoluble protein.

lysophosphatidic acid [LPA]
rate of LPA-stimulated proliferation ([1]; near-senescent cells): partially decreased
cell proliferation ([1]; presenescent cells): stimulated proliferation of presenescent cells dose-dependently
PKA activity (PKA; near-senescent cells): increased
PKA activity (PKA; presenescent cells): decreased
level of phospho-ERK (ERK1 and ERK2; near-senescent HDF (passage 29), 30 μg/ml LPA): did not increase further
ERK1 and ERK2 activation (phospho-ERK) (ERK1 and ERK2; presenescent HDF (passage 10), 30 μg/ml LPA for 10-30 min): stimulated
increase of cellular cAMP content (cellular cAMP; near-senescent fibroblasts, 30 μg/ml LPA for 60 min): 70-80%
increase of cellular cAMP (cellular cAMP; near-senescent fibroblasts, 30 min, LPA 1-70 μg/ml): 31-77%
decrease of cellular cAMP (cellular cAMP; presenescent fibroblasts, 30 min, LPA 1-70 μg/ml): 33-43%
